Data reported in paper PMC7819857, “Identification of Inhibitors of Integrin Cytoplasmic Domain Interactions With Syk” (Frontiers in Immunology, 2021).
pIC50: −log10 of the molar value.

Key:
[1] = molecular target: T1, pITAM : Syk tandem SH2 domains (GST-Syk(6-370)) (Homo sapiens, UniProt P43405); assay: pITAM-Syk AlphaScreen; settings: read-out: IC50, inhibition of pITAM-Syk binding
T1 construct: made in house; host or cells: E. coli BL21(DE3)
Source text: Figure 6 Selective inhibition of integrin signaling by ceftazidime. (A) Schematic illustration of the pITAM-Syk AlphaScreen used to test antagonist selectivity. (B) Comparison between ceftazidime (Ctaz) and pITAM peptide inhibition of pITAM-Syk binding in the AlphaScreen assay described in (A). […] Data are expressed as mean ± range from duplicate determinations. One of four representative assays is shown. (C) Effect of ceftazidime on Syk kinase activity. Ceftazidime (Ctaz) or Syk inhibitor P505-15 was used at 100 uM. Kinase activity is expressed as percent of maximum signal. Data are expressed as mean ± SEM (n = 3). **p < 0.01 (D) Selective effects of ceftazidime on integrin signaling. […] Phosphorylation of Syk (left and right panel) and Pyk-2 (center panel) was analyzed by immunoprecipitation and western blot. […] Quantification is shown below (left panel, n = 5; center panel, n = 3; right panel, n = 3), normalized to phosphorylation in suspension. Results are expressed as the mean ± SEM. […] Expression of interleukin (IL)-1β and monocyte chemoattractant protein (MCP)-1 genes was examined by quantitative real-time polymerase chain reaction. Data are expressed as expression levels relative to control cells kept in suspension. […] P-values were calculated by the Student t test. […]

[2] = molecular target: T2, wild-type full-length Syk : integrin β3 cytoplasmic domain (Homo sapiens, UniProt P43405); assay: Peptide affinity pull-down of Syk from THP-1 whole cell lysate on β3 peptide beads; format: binding; settings: bβ3(fl) on neutravidin agarose beads, western blot
T2 construct: endogenous in cells; host or cells: THP-1 whole cell lysate
Experimental: THP-1 cells were washed in PIPES buffer (10 mM PIPES, 50 mM NaCl pH 6.8) and resuspended at 10 × 10^6 cells/ml in PIPES lysis buffer [PIPES buffer containing 1% Triton X-100, 1 mM EDTA, 1 mM Na3VO4, 50 mM NaF, 150 mM sucrose, protease inhibitors (cOmplete, Mini, EDTA-free Protease Inhibitor Cocktail, Roche, cat#11836170001)] and 0.1 mM N-ethylmaleimide. The cells were incubated overnight in lysis buffer at 4°C with end-over-end rotation. Lysates were then passed through a 21-gauge needle and centrifuged at 13,000 × g for 30 min at 4°C. Lysate protein concentrations were determined by using Quick Start Bradford Dye reagent (BioRad cat#5000202). […] Eluted samples were run on SDS-PAGE (4–20%, BioRad, cat# 4561093) and immunoblotted for Syk using anti-Syk antibody at 1:1,000 (4D10; SantaCruz) dilution followed by GAM-HRP at 1:5,000 and detected with SuperSignal West Pico (Thermo Scientific, cat# 34580). Western blots were scanned, and band intensity was measured using ImageJ ([31]) to compare and determine the effect of the drug on Syk/β3 binding. […]
Figure 3 Dose-response curves in primary and orthogonal screens. […] Data are expressed as mean fluorescence (Fl520) ± range from duplicates, and one representative experiment of “n” performed is shown. […] Data are expressed as mean abs450 ± SEM from triplicate determinations, and one of three representative experiments is shown. […]

[3] = test system: IL-1β gene expression in THP-1 cells; assay: Quantitative PCR of adhesion-dependent IL-1β expression in THP-1 cells; format: cell-based, human; settings: 100 µM loaded cells, plated on CS-1, 4 h, qPCR
Experimental: (§1) THP-1 cells (2 × 10^6 per treatment group) that were glycerol loaded with ceftazidime (100 µM) or vehicle control (as described above) were plated on CS-1 peptide (10 µg/ml; 6-well plates) in serum-free RPMI-1640. Control cells were also kept in suspension. Plated and suspension cells were incubated for 4 h at 37°C. After incubation, the medium was removed, and RNA was isolated from cells with a Qiagen RNA extraction kit. After cDNA synthesis, quantitative real-time PCR was used to determine the relative gene expression levels of IL-1β and monocyte chemoattractant protein (MCP)-1 in THP-1 cells adhered to CS-1 in the presence of vehicle or ceftazidime relative to that of cells in suspension. The cycle threshold (Ct) results generated were analyzed according to the comparative Ct method (2^-ΔΔCt), where ΔCt is the difference between the CT value of target versus GAPDH control, and ΔΔCt is the difference between the ΔCt values of a given treated adherent cell sample and that of cells in suspension. Statistical differences between the two treatment groups for each target were determined by a two-tailed, unpaired Student t test using GraphPad Prism 7.04 statistical software.
(§2) Figure 6 Selective inhibition of integrin signaling by ceftazidime. […] Data are expressed as mean ± range from duplicate determinations. […] Kinase activity is expressed as percent of maximum signal. […]

[4] = test system: MCP-1 gene expression in THP-1 cells; assay: Quantitative PCR of adhesion-dependent MCP-1 expression in THP-1 cells; format: cell-based, human; settings: 100 µM loaded cells, plated on CS-1, 4 h, qPCR
Experimental: as §1, §2

[5] = test system: THP-1 cells; assay: THP-1 cell adhesion to CS-1; format: cell-based, human; settings: cells loaded by glycerol shock
Experimental: Supplemental Figure 6. Effects of ceftazidime on THP-1 adhesion to CS-1. Cells were loaded with ceftazidime by glycerol shock. After loading, cells were washed with media and loaded with calcein-AM. CS-1–conjugated bovine serum albumin was immobilized in 96-well plates (5 ug/ml), and adhesion assays were performed as previously described (1). Data are expressed as average fluorescence ± standard deviation from triplicates. One of two representative experiments is shown. The green line represents cell adhesion in the absence of ceftazidime.

## CC(C)(O/N=C(\C(=O)N[C@@H]1C(=O)N2C(C(=O)[O-])=C(C[n+]3ccccc3)CS[C@H]12)c1csc(N)n1)C(=O)O [ceftazidime]
[1]
  pIC50: < 3.52
[2]
  inhibition of wild-type Syk interaction with integrin β3 cytoplasmic domains: inhibited
[3]
  adhesion-dependent induction of the expression of IL-1β: significantly inhibited
[4]
  adhesion-dependent induction of the expression of MCP-1: significantly inhibited
[5]
  effect on THP-1 cell adhesion to CS-1: not due to ceftazidime inhibition of THP-1 cell adhesion to CS-1
